The text below walks through data of paper PMC6437697 (Journal of Medicinal Chemistry, 2019).

The structures appear in SMILES notation.

Holding throughout (experiment): KINOMEscan
Holding throughout (format): binding
Holding throughout (conditions): read-out: % control activity remaining

The target in one experiment is T1, ASK1 (Homo sapiens, UniProt Q99683).
T1 construct: purchased Eurofins DiscoverX KINOMEscan
T1 sequence (Q99683 1-1374): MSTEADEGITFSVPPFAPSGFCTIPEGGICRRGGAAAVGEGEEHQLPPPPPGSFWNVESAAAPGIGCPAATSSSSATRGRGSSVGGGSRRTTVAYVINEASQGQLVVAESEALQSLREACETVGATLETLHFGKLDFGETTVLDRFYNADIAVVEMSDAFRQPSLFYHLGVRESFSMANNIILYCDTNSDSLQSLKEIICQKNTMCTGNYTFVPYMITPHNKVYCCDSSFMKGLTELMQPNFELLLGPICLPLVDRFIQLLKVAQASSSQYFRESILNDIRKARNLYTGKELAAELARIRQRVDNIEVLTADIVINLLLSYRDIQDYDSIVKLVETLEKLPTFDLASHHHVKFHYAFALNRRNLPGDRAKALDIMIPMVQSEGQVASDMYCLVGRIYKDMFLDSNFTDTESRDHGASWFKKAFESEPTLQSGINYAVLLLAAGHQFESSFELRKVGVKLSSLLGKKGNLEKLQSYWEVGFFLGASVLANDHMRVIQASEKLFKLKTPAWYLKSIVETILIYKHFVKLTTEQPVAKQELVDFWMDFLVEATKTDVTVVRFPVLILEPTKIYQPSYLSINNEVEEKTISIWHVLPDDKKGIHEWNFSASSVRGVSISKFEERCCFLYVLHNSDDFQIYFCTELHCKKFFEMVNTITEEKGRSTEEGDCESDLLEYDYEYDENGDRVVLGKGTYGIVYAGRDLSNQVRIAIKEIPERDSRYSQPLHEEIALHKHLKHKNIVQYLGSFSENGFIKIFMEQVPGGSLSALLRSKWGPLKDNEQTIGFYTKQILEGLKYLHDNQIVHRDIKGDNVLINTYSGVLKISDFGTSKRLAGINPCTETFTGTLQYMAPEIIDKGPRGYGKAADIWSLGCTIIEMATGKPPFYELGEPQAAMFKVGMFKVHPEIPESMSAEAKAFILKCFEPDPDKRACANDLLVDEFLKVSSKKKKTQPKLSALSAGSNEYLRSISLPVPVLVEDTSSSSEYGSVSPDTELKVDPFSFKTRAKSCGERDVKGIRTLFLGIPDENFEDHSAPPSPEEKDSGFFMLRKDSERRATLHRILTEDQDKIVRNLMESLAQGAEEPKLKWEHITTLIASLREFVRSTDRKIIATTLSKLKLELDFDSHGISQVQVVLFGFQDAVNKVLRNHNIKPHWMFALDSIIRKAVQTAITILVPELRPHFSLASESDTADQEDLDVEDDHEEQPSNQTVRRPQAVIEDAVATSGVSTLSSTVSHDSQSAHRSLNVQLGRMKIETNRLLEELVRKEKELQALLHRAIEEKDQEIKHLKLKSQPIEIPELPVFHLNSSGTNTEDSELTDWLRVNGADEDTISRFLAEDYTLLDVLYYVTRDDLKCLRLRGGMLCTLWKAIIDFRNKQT

The target of the next experiment is T2, CDK8 (Homo sapiens, UniProt P49336).
T2 construct: purchased Eurofins DiscoverX KINOMEscan
T2 sequence (P49336 whole entry): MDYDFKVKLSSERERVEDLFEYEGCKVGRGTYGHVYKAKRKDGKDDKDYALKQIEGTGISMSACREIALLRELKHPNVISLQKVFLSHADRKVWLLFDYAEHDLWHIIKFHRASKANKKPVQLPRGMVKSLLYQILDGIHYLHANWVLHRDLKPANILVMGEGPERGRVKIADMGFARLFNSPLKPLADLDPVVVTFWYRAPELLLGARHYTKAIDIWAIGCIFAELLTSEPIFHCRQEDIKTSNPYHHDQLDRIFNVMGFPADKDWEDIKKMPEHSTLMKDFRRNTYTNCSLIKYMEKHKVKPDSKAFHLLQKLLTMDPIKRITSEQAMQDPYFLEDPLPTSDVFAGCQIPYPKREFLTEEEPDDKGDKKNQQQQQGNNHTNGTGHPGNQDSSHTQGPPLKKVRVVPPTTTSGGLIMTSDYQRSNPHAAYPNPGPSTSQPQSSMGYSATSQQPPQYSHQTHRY

In another experiment the target is T3, CHEK1 (Homo sapiens, UniProt O14757).
T3 construct: purchased Eurofins DiscoverX KINOMEscan
T3 sequence (O14757 1-476): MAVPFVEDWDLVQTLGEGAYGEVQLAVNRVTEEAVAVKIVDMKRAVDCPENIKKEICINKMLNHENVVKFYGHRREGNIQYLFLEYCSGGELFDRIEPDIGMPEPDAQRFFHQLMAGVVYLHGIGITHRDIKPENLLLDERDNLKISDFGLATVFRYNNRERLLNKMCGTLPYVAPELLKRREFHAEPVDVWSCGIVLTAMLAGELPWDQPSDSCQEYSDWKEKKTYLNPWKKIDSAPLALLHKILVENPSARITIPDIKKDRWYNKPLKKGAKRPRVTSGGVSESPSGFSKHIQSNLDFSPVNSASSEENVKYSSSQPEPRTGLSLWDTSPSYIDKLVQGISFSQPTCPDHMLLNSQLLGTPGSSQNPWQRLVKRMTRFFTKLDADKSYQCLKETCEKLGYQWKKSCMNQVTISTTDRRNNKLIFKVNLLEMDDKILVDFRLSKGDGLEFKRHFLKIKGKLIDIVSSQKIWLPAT

The target in the next experiment is T4, ERK8 (Homo sapiens, UniProt Q8TD08).
T4 construct: purchased Eurofins DiscoverX KINOMEscan
T4 sequence (Q8TD08 1-544): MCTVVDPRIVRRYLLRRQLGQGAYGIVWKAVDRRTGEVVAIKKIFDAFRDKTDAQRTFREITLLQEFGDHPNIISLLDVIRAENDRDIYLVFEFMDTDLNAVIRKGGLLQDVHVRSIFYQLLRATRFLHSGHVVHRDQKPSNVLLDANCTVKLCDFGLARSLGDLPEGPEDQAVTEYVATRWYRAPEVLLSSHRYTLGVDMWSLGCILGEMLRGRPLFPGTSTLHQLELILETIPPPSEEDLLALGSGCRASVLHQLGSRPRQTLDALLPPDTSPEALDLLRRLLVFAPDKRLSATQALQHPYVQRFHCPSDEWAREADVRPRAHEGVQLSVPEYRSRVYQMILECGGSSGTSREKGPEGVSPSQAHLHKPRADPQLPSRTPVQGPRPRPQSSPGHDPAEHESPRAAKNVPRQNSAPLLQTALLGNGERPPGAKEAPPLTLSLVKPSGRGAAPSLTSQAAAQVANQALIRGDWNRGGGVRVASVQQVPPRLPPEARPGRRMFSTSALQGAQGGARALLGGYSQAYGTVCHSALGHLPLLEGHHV

Consider `Clc1cc(NCC2CC2)c2ncc(-c3ccc4[nH]ncc4c3)n2n1` [compound 2, 6-Chloro-N-(cyclopropylmethyl)-3-(1H-indazol-5-yl)imidazo[1,2-b]pyridazin-8-amine], for which the remaining binding at 1 µM is 70% on ASK1, 82% on CDK8, 88% at CHEK1 and 87% on ERK8.
Taken in the same sequence, the figures for `O=C(CN1CCOCC1)N[C@H]1CC[C@H](Nc2cc(Cl)nn3c(-c4ccc5[nH]ncc5c4)cnc23)CC1` [compound 26] were 100%, 97%, 100% and 81%.
Turning to `CN1CCC(CNc2cc(Cl)nn3c(-c4cc5nc(Nc6ccccc6)[nH]c5cc4F)cnc23)CC1` [compound 31, 6-Chloro-3-(6-fluoro-2-(phenylamino)-1H-benzo[d]imidazol-5-yl)-N-((1-methylpiperidin-4-yl)methyl)imidazo[1,2-b]pyridazin-8-amine], the remaining binding at 1 µM on ASK1 was found to be 100%; at CDK8 it was 70%; at CHEK1, 100%; at ERK8, 100%.
